# Test results: patent publication US8093050B2, “mTOR inhibtors and mTOR signaling pathway inhibitors induce differentiation of human embryonic stem cells into the osteoblastic lineage” (Korea Research Institute of Bioscience and Biotechnology, priority 2007, dated 2012)
# Entries after “also recorded” stand apart in the source; their conditions may differ.
# Key:
# [1] = test system: human embryonic stem cells; test: RT-PCR of osteoblast-specific genes, adhesion culture (FIG. 5); assay type: cell-based; settings: for expression of osteoblast-specific genes: 10 μM of LY29400, 1 μM of an AKT inhibitor, or rapamycin; for expression level of osteoblastic markers: human embryonic stem cells, LY294002, AKT inhibitor, or 20 nM rapamycin for 5 days
# Procedure: For osteogenic differentiation by adhesion culturing, the human embryonic stem cells obtained in Example 1, after passage, were cultured in the culture medium of Example 1 for 2 days, and then in a culture medium, free of recombinant human FGF basic, […], 0.01˜50 μM LY294002, 0.01˜20 μM AKT inhibitor, or conventional osteogenic supplements (10 mM β-glycerophosphate, 0.1 mM Dexamethasone, 0.1 mM L-ascorbic acid) for […], with daily replacement with a fresh embryonic stem cell culture medium (FIG. 2A).
# (§1) The differentiation of human embryonic stem cells into osteoblasts in Example 3 was examined by detecting the expression of osteoblast-specific genes through RT-PCR and quantitative real-time PCR. For this, after treatment or non-treatment with rapamycin, LY294002, an AKT inhibitor or osteogenic supplements (10 mM β-glycerophosphate, 0.1 mM Dexamethasone, and 0.1 mM L-ascorbic acid), cells were collected according to differentiation stages and subjected to total RNA isolation using a TRIzol reagent (Invitrogen, USA). The RNA was used as a template to synthesize cDNA with a oligo(dT) primer in the presence of a Superscript II reverse transcriptase, followed by PCR with various primers listed in Table 1, below.
# First, a description is given of the adhesion culture method. […] Afterwards, the human embryonic stem cells are induced to differentiate into osteoblasts by being cultured for five days in a medium that is the same except that it is free of recombinant human FGF basic and is supplemented with LY294002, an AKT inhibitor, rapamycin, and/or conventional osteogenic supplements (10 mM 3-glycerophosphate, 0.1 mM Dexamethasone, and 0.1 mM L-ascorbic acid) (Stage II).
# [2] = test system: human embryonic stem cell-derived embryoid bodies; test: RT-PCR of osteoblast-specific genes, embryoid body formation method (FIG. 6); assay type: cell-based; settings: for expression level of osteoblastic markers / expression level of osteoblast-specific genes compared to untreated control: embryoid bodies; for expression level of osteoblastic markers: 20 nM rapamycin for three weeks; for expression level of osteoblast-specific genes compared to untreated control: LY294002 (0-50 μM), AKT inhibitor (0-20 μM), or rapamycin (0-200 nM) for 1~3 weeks; for expression levels of osteoblast-specific genes: embryoid body formation method
# Procedure: After being collected as a suspension, the cell clumps were transferred into bacterial cell culture dishes and incubated for 5 days in a suspension culture manner. Afterwards, the embryoid bodies thus obtained were transferred to Matrigel (BD biosciences, USA)-coated culture dishes, free of human recombinant FGF basic, containing 0.1˜200 nM rapamycin, […], or osteogenic supplements (10 mM β-glycerophosphate, 0.1 mM Dexamethasone, and 0.1 mM L-ascorbic acid) for three weeks in an adhesion culture manner to achieve osteogenic differentiation (FIG. 3A).
# as §1
# (§2) Osteogenic differentiation using the embryoid body formation method is schematically illustrated in FIG. 3A. Initially, human embryonic stem cells are cultured for one day in the same manner as in the adhesion culture method, after which the colonies thus grown are sliced into cell clumps using a tool made from a glass pipette.
# [3] = test system: human embryonic stem cells; test: Cytotoxicity in differentiation culture; assay type: cell-based; settings: for cytotoxicity: 10 μM of LY29400, 1 μM of an AKT inhibitor, or 220 nM of rapamycin
# [4] = test system: PI3K; settings: cited from earlier work
# [5] = test system: PI4K, an EGR receptor, a PDGF receptor, an insulin receptor, an MAP kinase, an S6 kinase; settings: cited from earlier work
# [6] = test system: human embryonic stem cell-derived embryoid bodies; test: Quantitative real-time PCR of osteoblast-specific genes (FIGS. 7, 8, 11); assay type: cell-based
# Procedure: After being collected as a suspension, the cell clumps were transferred into bacterial cell culture dishes and incubated for 5 days in a suspension culture manner. Afterwards, the embryoid bodies thus obtained were transferred to Matrigel (BD biosciences, USA)-coated culture dishes, free of human recombinant FGF basic, containing 0.1˜200 nM rapamycin, 0.01˜50 μM LY294002, 0.01˜20 μM AKT inhibitor, or osteogenic supplements (10 mM β-glycerophosphate, 0.1 mM Dexamethasone, and 0.1 mM L-ascorbic acid) for three weeks in an adhesion culture manner to achieve osteogenic differentiation (FIG. 3A).
# as §1, §2
# [7] = test system: human embryonic stem cell-derived embryoid bodies; test: Analysis for mineralization by Alizarin-Red S staining; assay type: cell-based
# Procedure: The cells obtained using the three differentiation inducing techniques described in Example 3 were analyzed for mineralization using an Alizarin-Red S staining method. After aspirating the culture medium, the cells on the culture dish were washed with PBS and fixed at 4° C. for 1 hr with 70% ethanol. Thereafter, the cells were stained with a 40 mM alizarin red (AR) solution (pH 4.2) for 10 min, washed with distilled water, and observed for mineral nodule formation under an optical microscope before they were completely dried. […] A culture period of three weeks was required to maximize the number of Alizarin Red-positive cells upon osteogenic differentiation with rapamycin alone.
# [8] = test system: human embryonic stem cell-derived embryoid bodies; test: Immunofluorescent staining for BSP and osteocalcin; assay type: cell-based
# Procedure: The osteogenic differentiation of the cells obtained using the three differentiation inducing techniques described in Example was identified by immunofluorescent staining. First, the cells were placed on a 1 cm^2 cover glass and the medium was aspirated. Following washing with PBS, the cells were incubated with a fixing solution (citrate-acetone-formaldehyde) for about 30 sec at room temperature and washed with distilled water for 45 sec. Next, treatment with 3% bovine serum albumin/phosphate buffered saline (BSA/PBS) for 30 min was followed by incubation with a primary antibody for 12 hrs. Then, the cells were washed three times for 15 min in 0.1% Triton X-100/PBS before labeling by incubation with an Alexa488-conjugated secondary antibody (Molecular probes, USA) for 30 min at room temperature. The cells were washed again three times in 0.1% Triton X-100/PBS for 15 min each time for observation under a fluorescent microscope (Olympus, Japan). In order to identify osteogenic differentiation, anti-bone sialoprotein (anti-BSP, Chemicon; 1:100), and anti-osteocalcin (R&D Systems; 1:500) were used for immunofluorescence.
# [9] = osteoblasts differentiated from embryoid bodies, FIG. 6
# [10] = embryoid bodies, one week of differentiation, FIG. 7
# [11] = two weeks of differentiation culture, FIG. 7
structure (smiles),measurement,setting,value
CCCCCCCCCCCCCCCCCCOC[C@H](COC(=O)OC1C(O)C(O)C(O)C(CO)C1O)OC (stereo partly drawn) [AKT inhibitor],expression of osteoblast-specific genes,[1],efficiently expressed
same,expression level of osteoblastic markers,[1],increase in expression level
same,expression level of osteoblastic markers,[2],increase in expression level
same,expression level of osteoblast-specific genes compared to untreated control,[2],increase in the expression level
same,expression levels of osteoblast-specific genes,[2]; FIG. 6,increase the expression levels
same,expression of osterix and osteoprotegerin,[2]; [9],expressed at high levels
same,cytotoxicity,[3],without the occurrence of cytotoxicity
O=c1cc(N2CCOCC2)oc2c(-c3ccccc3)cccc12 [LY294002],expression of osteoblast-specific genes,[1],efficiently expressed
same,expression level of osteoblastic markers,[1],increase in expression level
same,expression level of osteoblastic markers,[2],increase in expression level
same,expression level of osteoblast-specific genes compared to untreated control,[2],increase in the expression level
same,expression levels of osteoblast-specific genes,[2]; FIG. 6,increase the expression levels
same,expression of osterix and osteoprotegerin,[2]; [9],expressed at high levels
same,cytotoxicity,[3],without the occurrence of cytotoxicity
same,inhibition of PI3K,[4],inhibits PI3K
same,"inhibition of PI4K, an EGR receptor, a PDGF receptor, an insulin receptor, an MAP kinase, an S6 kinase",[5],does not inhibit
CO[C@H]1C[C@@H]2CC[C@@H](C)[C@@](O)(O2)C(=O)C(=O)N2CCCC[C@H]2C(=O)O[C@H]([C@H](C)C[C@@H]2CC[C@@H](O)[C@H](OC)C2)CC(=O)[C@H](C)/C=C(\C)[C@@H](O)[C@@H](OC)C(=O)[C@H](C)C[C@H](C)/C=C/C=C/C=C/1C [rapamycin],"expression of osteoblast-specific genes, dose comparison",[1]; 20 nM versus 10 nM of rapamycin,greater levels in the presence of 20 nM than 10 nM
same,"expression levels of Osteocalcin and Osteonectin, dose comparison","[1]; 20 nM versus 10 nM rapamycin, FIG. 5",higher at a dose of 20 nM than 10 nM
same,expression of osteoblast-specific genes,[1],efficiently expressed
same,expression level of osteoblastic markers,[1],increase in expression level
same,"expression of osterix, BMP2, and osteonectin genes","[1]; two cell lines, adhesion culture, FIG. 5","expressed in both cell lines, but in different patterns"
same,"expression of osteoblastic markers Cbfa-1, osteocalcin, and osteoprotegerin","[1]; two independently established cell lines, adhesion culture, compared to an undifferentiated control, FIG. 5",expressed; also recorded: distinctively higher levels
same,expression level of osteoblastic markers,[2],increase in expression level
same,expression level of osteoblast-specific genes compared to untreated control,[2],increase in the expression level
same,expression levels of osteoblast-specific genes,[2]; FIG. 6,increase the expression levels
same,osteogenic induction activity among the three compounds,"[2]; even at low doses, FIG. 6",most potent induction activity
same,induction of embryoid bodies to differentiate into osteoblasts relative to LY294002 and AKT inhibitor,"[2]; osteoblastic markers, FIG. 6",more effectively induce
same,amounts of marker genes expressed relative to LY294002 or an AKT inhibitor,[2]; [9],as great as or greater than
same,"diversity of expressed marker genes (BMP2, osteocalcin, Cbfa-2, osterix, osteoprotegerin, GATA2, CMP)",[2]; [9],highest diversity
same,expression of osterix and osteoprotegerin,[2]; [9],expressed at high levels
same,"osteogenic differentiation activity relative to conventional osteogenic supplements (cell morphology, expression level of osteoblastic markers)","[6]; FIGS. 2, 7 and 8",as good as or better than
same,"expression level of osterix, BMP2, BMP4, α1 type I collagen, osteocalcin, osteoprotegerin, osteonectin, and osteopontin","[6]; after three weeks of differentiation culture, FIG. 8",continued to increase in expression level
same,expression level of Cbfa1,"[6]; both human embryonic stem cell lines, after three weeks of differentiation culture",decreased in the expression level
same,"expression levels of osterix, BMP4, α1 type I collagen, osteoprotegerin, and osteopontin","[6]; both human embryonic stem cell lines, three weeks of differentiation culture",similarly increased
same,expression of BMP2 increased,[6]; [10],1.38 fold
same,expression of BSP increased,[6]; [10],6.54 fold
same,expression of Cbfa1 increased,[6]; [10],3.24 fold
same,expression of osteocalcin increased,[6]; [10],1.84 fold
same,expression of osteopontin increased,[6]; [10],2.89 fold
same,expression level of osteoblastic markers,"[6]; embryoid bodies, one week of incubation with rapamycin, FIG. 7",increase in expression level
same,expression level of BMP2 increased,[6]; [11],1.34 fold
same,expression level of BMP4 increased,[6]; [11],1.18 fold
same,expression level of BSP increased,[6]; [11],1.63 fold
same,expression level of Cbfa-1 increased,[6]; [11],2.11 fold
same,expression level of osteocalcin increased,[6]; [11],1.61 fold
same,expression level of osteonectin increased,[6]; [11],1.94 fold
same,expression level of osteopontin increased,[6]; [11],5.81 fold
same,expression level of osteoprotegerin increased,[6]; [11],2.18 fold
same,expression level of osterix increased,[6]; [11],1.59 fold
same,expression level of α1 type I collagen increased,[6]; [11],1.35 fold
same,Alizarin-Red staining of differentiated cells,"[7]; cells induced to differentiate, FIG. 10",positively stained
same,incubation needed to obtain a mature osteoblast phenotype,[7]; embryoid bodies incubated with rapamycin,additional three weeks
same,differentiation into mature osteoblasts,"[7]; embryoid bodies, 20 nM rapamycin for three weeks",most efficient differentiation
same,Alizarin Red S staining,"[7]; embryoid bodies, three weeks, 20 nM rapamycin, FIG. 10",positively stained
same,culture period required to maximize the number of Alizarin Red-positive cells,[7]; osteogenic differentiation with rapamycin alone,three weeks
same,ability to induce osteogenic differentiation relative to conventional osteogenic supplements,[8]; FIG. 9,as good as or better than
same,number of cells differentiated into osteoblasts (BSP or osteocalcin antibody) relative to conventional osteogenic supplements,[8]; FIG. 9,same or greater number
same,immunofluorescent staining with antibodies to BSP and osteocalcin,"[8]; embryoid bodies, three weeks, 20 nM rapamycin",positively stained
same,cytotoxic effects,[3]; 20 nM of rapamycin added to a culture medium,no cytotoxic effects
same,cytotoxicity,[3],without the occurrence of cytotoxicity
